Laboratory results published in PubChem BioAssay AID256 (DTP/NCI, 2004).
Where “and” joins values, the source holds several entries; their conditions need not be identical. Equal entries are not always repeated. Inconclusive results and toxic doses are left out.

Test system: CD2F1 mice, L1210 leukemia ip, survival T/C
Test: NCI In Vivo Anticancer Drug Screen. Data for tumor model L1210 Leukemia (intraperitoneal) in CD2F1 (CDF1) mice
Conditions: higher = longer survival
Outline: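 Antitumor effect is scored in animals hosting a serially transplanted tumor. Values compare compound-dosed animals against vehicle-only controls as a simple quotient.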

[1] = endpoint: mean survival time, dose: 100.0 mg/kg/injection, schedule: Q01DX009 (ip), vehicle: saline with Tween-80
[2] = endpoint: mean survival time, dose: 100.0 mg/kg/injection, schedule: Q04DX002 (ip), vehicle: saline with Tween-80
[3] = endpoint: mean survival time, dose: 400.0 mg/kg/injection, schedule: Q04DX002 (ip), vehicle: saline with Tween-80

Compound: CC(O)C1(O)C(O)CC(OC2c3cc4c(c(O)c3[C@@H]3C[C@@]2(C)OC32C=c3cc[nH]c3=N2)C(=O)c2cccc(O)c2C4=O)OC1C (stereo partly specified)
- T/C (endpoint: median survival time, dose: 6.25 mg/kg/injection, schedule: Q01DX009 (ip), vehicle: saline with Tween-80): 114 % of control
- T/C (endpoint: median survival time, dose: 12.5 mg/kg/injection, schedule: Q01DX009 (ip), vehicle: saline with Tween-80): 118 % of control
- T/C (endpoint: median survival time, dose: 25.0 mg/kg/injection, schedule: Q01DX009 (ip), vehicle: saline with Tween-80): 113 % of control
- T/C (endpoint: median survival time, dose: 50.0 mg/kg/injection, schedule: Q01DX009 (ip), vehicle: saline with Tween-80): 97 % of control

Compound: C=C(Br)CNC(=O)CCCl
- T/C (endpoint: mean survival time, dose: 1.56 mg/kg/injection, schedule: Q01DX009 (ip), vehicle: other): 102 % of control
- T/C (endpoint: mean survival time, dose: 3.13 mg/kg/injection, schedule: Q01DX009 (ip), vehicle: other): 103 % of control
- T/C (endpoint: mean survival time, dose: 6.25 mg/kg/injection, schedule: Q01DX009 (ip), vehicle: other): 100 % of control
- T/C (endpoint: mean survival time, dose: 6.25 mg/kg/injection, schedule: Q04DX003 (ip), vehicle: other): 103 % of control
- T/C (endpoint: mean survival time, dose: 12.5 mg/kg/injection, schedule: Q04DX003 (ip), vehicle: other): 100 % of control
- T/C (endpoint: mean survival time, dose: 25.0 mg/kg/injection, schedule: Q04DX003 (ip), vehicle: other): 105 % of control

Compound: COc1cccc2c1C(=O)c1c(O)c3c(c(O)c1C2=O)C[C@@](O)(/C(CO)=N/NC(=O)c1ccc(Cl)c(Cl)c1)C[C@@H]3OC1CC(N)C(O)C(C)O1 (stereo partly specified)
- T/C (endpoint: mean survival time, dose: 1.0 mg/kg/injection, schedule: Q01DX009 (ip), vehicle: water): 86 % of control
- T/C (endpoint: mean survival time, dose: 2.0 mg/kg/injection, schedule: Q01DX009 (ip), vehicle: water): 116 % of control and 89 % of control
- T/C (endpoint: mean survival time, dose: 4.0 mg/kg/injection, schedule: Q01DX009 (ip), vehicle: water): 92 % of control
- T/C (endpoint: mean survival time, dose: 8.0 mg/kg/injection, schedule: Q01DX009 (ip), vehicle: water): 92 % of control
- T/C (endpoint: mean survival time, dose: 16.0 mg/kg/injection, schedule: Q01DX009 (ip), vehicle: water): 252 % of control and 97 % of control
- T/C (endpoint: mean survival time, dose: 32.0 mg/kg/injection, schedule: Q01DX009 (ip), vehicle: water): 113 % of control and 111 % of control

Compound: CC12CCCC(CCCO)(C1)NC(=O)C2 (stereo unspecified)
- T/C (endpoint: mean survival time, dose: 100.0 mg/kg/injection, schedule: Q01DX001 (ip), vehicle: saline): 101 % of control
- T/C (endpoint: mean survival time, dose: 200.0 mg/kg/injection, schedule: Q01DX001 (ip), vehicle: saline): 101 % of control
- T/C (endpoint: mean survival time, dose: 400.0 mg/kg/injection, schedule: Q01DX001 (ip), vehicle: saline): 101 % of control

Compound: COc1ccc(NC(=O)Oc2ccccc2C(C)C)cc1
- T/C (endpoint: mean survival time, dose: 25.0 mg/kg/injection, schedule: Q01DX009 (ip), vehicle: saline with Tween-80): 97 % of control
- T/C (endpoint: mean survival time, dose: 25.0 mg/kg/injection, schedule: Q04DX002 (ip), vehicle: saline with Tween-80): 107 % of control
- T/C (endpoint: mean survival time, dose: 50.0 mg/kg/injection, schedule: Q01DX009 (ip), vehicle: saline with Tween-80): 97 % of control
- T/C (endpoint: mean survival time, dose: 50.0 mg/kg/injection, schedule: Q04DX002 (ip), vehicle: saline with Tween-80): 111 % of control
- T/C [1]: 97 % of control
- T/C [2]: 90 % of control and 96 % of control
- T/C [3]: 93 % of control

Compound: CCCC/C=N/NC(=O)c1ccc[n+](C)c1
- T/C (endpoint: mean survival time, dose: 100.0 mg/kg/injection, schedule: Q04DX003 (ip), vehicle: saline): 102 % of control
- T/C (endpoint: mean survival time, dose: 200.0 mg/kg/injection, schedule: Q04DX003 (ip), vehicle: saline): 98 % of control
- T/C (endpoint: mean survival time, dose: 400.0 mg/kg/injection, schedule: Q04DX003 (ip), vehicle: saline): 105 % of control

Compound: COc1cc([N+](=O)[O-])ccc1NC(=O)NCCc1ccccc1
- T/C (endpoint: mean survival time, dose: 100.0 mg/kg/injection, schedule: Q01DX001 (ip), vehicle: saline with Tween-80): 86 % of control and 97 % of control
- T/C [1]: 90 % of control and 91 % of control
- T/C [2]: 95 % of control
- T/C (endpoint: mean survival time, dose: 100.0 mg/kg/injection, schedule: Q04DX003 (ip), vehicle: saline with Tween-80): 89 % of control
- T/C (endpoint: mean survival time, dose: 200.0 mg/kg/injection, schedule: Q01DX001 (ip), vehicle: saline with Tween-80): 86 % of control and 91 % of control
- T/C (endpoint: mean survival time, dose: 200.0 mg/kg/injection, schedule: Q01DX009 (ip), vehicle: saline with Tween-80): 91 % of control and 103 % of control
- T/C (endpoint: mean survival time, dose: 200.0 mg/kg/injection, schedule: Q04DX002 (ip), vehicle: saline with Tween-80): 95 % of control
- T/C (endpoint: mean survival time, dose: 200.0 mg/kg/injection, schedule: Q04DX003 (ip), vehicle: saline with Tween-80): 91 % of control
- T/C (endpoint: mean survival time, dose: 400.0 mg/kg/injection, schedule: Q01DX001 (ip), vehicle: saline with Tween-80): 91 % of control
- T/C (endpoint: mean survival time, dose: 400.0 mg/kg/injection, schedule: Q01DX009 (ip), vehicle: saline with Tween-80): 90 % of control and 91 % of control
- T/C [3]: 90 % of control
- T/C (endpoint: mean survival time, dose: 400.0 mg/kg/injection, schedule: Q04DX003 (ip), vehicle: saline with Tween-80): 89 % of control
